Laboratory results as given in ChEMBL document CHEMBL1137080, “Synthesis and antiviral activity of (Z)- and (E)-2,2-[bis(hydroxymethyl)cyclopropylidene]methylpurines and -pyrimidines: second-generation methylenecyclopropane analogues of nucleosides” (J Med Chem, 2004).

What was measured:
Human betaherpesvirus 5 [1] = experiment: In vitro cytotoxic concentration required to inhibit towne strain of human cytomegalovirus (HCMV) replication in HFF cell line; type: functional; settings: Human betaherpesvirus 5, HFF
HFF [2] = experiment: In vitro cytotoxic concentration required to inhibit AD169 strain of human cytomegalovirus (HCMV) replication in HFF cell line; type: functional
HepG2 = experiment: In vitro cytotoxic concentration required to inhibit hepatitisB virus (HBV) replication in 2.2.15 cell line; type: functional; settings: Homo sapiens
Human gammaherpesvirus 4 [3] = experiment: In vitro effective concentration required to inhibit Epstein-Barr virus (EBV) replication in Daudi cells; type: functional, organism-based; settings: human gammaherpesvirus 4, Daudi
Human gammaherpesvirus 4 [4] = experiment: In vitro cytotoxic concentration required to inhibit Epstein-Barr virus (EBV) replication in Daudi cells; type: functional; settings: human gammaherpesvirus 4, Daudi
Hepatitis B virus = experiment: In vitro effective concentration required to inhibit hepatitisB virus (HBV) replication in 2.2.15 cell line; type: functional, organism-based
Human alphaherpesvirus 3 = experiment: In vitro effective concentration required to inhibit varicella zoster virus (VZV) replication in HFF cell line; type: functional, organism-based; settings: Human alphaherpesvirus 3, HFF
Human gammaherpesvirus 4 [5] = experiment: In vitro effective concentration required to inhibit Epstein-Barr virus (EBV) replication in H-1 cell line; type: functional, organism-based; settings: human gammaherpesvirus 4, H-1
Human betaherpesvirus 5 [6] = experiment: In vitro effective concentration required to inhibit AD169 strain of human cytomegalovirus (HCMV) replication in HFF cell line; type: functional, organism-based; settings: Human betaherpesvirus 5, HFF
Human betaherpesvirus 5 [7] = experiment: In vitro effective concentration required to inhibit towne strain of human cytomegalovirus (HCMV) replication in HFF cell line; type: functional, organism-based; settings: Human betaherpesvirus 5, HFF
HFF [8] = experiment: In vitro effective concentration required to inhibit varicella zoster virus (VZV) replication in HFF cell line by plaque reduction assay; type: functional, cell-based; settings: Homo sapiens
MEF = experiment: In vitro effective concentration required to inhibit murine cytomegalovirus (MCMV) replication in MEF cell line; type: functional, cell-based; settings: Mus musculus
Murid betaherpesvirus 1 = experiment: In vitro cytotoxic concentration required to inhibit murine cytomegalovirus (MCMV) replication in MEF cell line; type: functional

| Compound | CC50 (Human betaherpesvirus 5 [1]) [µM] | CC50 (HFF [2]) [µM] | CC50 (HepG2) [µM] | EC50 (Human gammaherpesvirus 4 [3]) [µM] | CC50 (Human gammaherpesvirus 4 [4]) [µM] | EC50 (Hepatitis B virus) [µM] | EC50 (Human alphaherpesvirus 3) [µM] | EC50 (Human gammaherpesvirus 4 [5]) [µM] | EC50 (Human betaherpesvirus 5 [6]) [µM] | EC50 (Human betaherpesvirus 5 [7]) [µM] | EC50 (HFF [8]) [µM] | EC50 (MEF) [µM] | CC50 (Murid betaherpesvirus 1; Murid betaherpesvirus 1, MEF) [µM] | CC50 (Murid betaherpesvirus 1) |
| --- | --- | --- | --- | --- | --- | --- | --- | --- | --- | --- | --- | --- | --- | --- |
| Nc1nc(N)c2ncn(C=C3CC3(CO)CO)c2n1 [listing 1 of 3 here] | > 100 | > 381 | > 100 | < 0.31 | 191 | > 20 | 270 | > 20 | 313 | > 100 | – | – | – | – |
| Nc1nc(NC2CC2)c2ncn(/C=C3\CC3(CO)CO)c2n1 | > 100 | > 331 | > 100 | 0.3 | > 165 | > 20 | > 331 | > 20 | 327 | > 100 | – | – | – | – |
| Nc1nc(N)c2ncn(C=C3CC3(CO)CO)c2n1 [listing 2 of 3 here] | > 100 | > 381 | 48 | > 191 | > 191 | 4 | 8.4 | > 20 | > 381 | 15 | 38.9 | – | – | – |
| Nc1nc(NC2CC2)c2ncn(/C=C3/CC3(CO)CO)c2n1 | > 100 | > 331 | > 100 | > 165 | > 165 | > 20 | > 66 | > 20 | 255 | > 100 | – | – | – | – |
| Nc1nc2c(ncn2/C=C2\CC2(CO)CO)c(=O)[nH]1 | > 100 | > 380 | > 50 | 119 | > 190 | > 20 | > 357 | > 20 | 120 | 39 | – | 42 | > 380 | – |
| Nc1nc2c(ncn2COC(CO)CO)c(=O)[nH]1 [GANCICLOVIR] | > 100 | > 392 | – | – | – | – | – | – | 2.3 | 4.1 | – | 5 | > 35 | – |
| COc1nc(N)nc2c1ncn2C=C1CC1(CO)CO [listing 1 of 3 here] | > 100 | > 361 | > 100 | > 180 | > 180 | > 20 | 322 | > 20 | > 361 | > 100 | – | – | – | – |
| COc1nc(N)nc2c1ncn2C=C1CC1(CO)CO [listing 2 of 3 here] | > 100 | > 361 | 90 | 161 | > 180 | > 20 | 11.2 | 4.8 | 2.7 | 3.5 | 3.3 | 2 | > 361 | – |
| Cc1cn(/C=C2\CC2(CO)CO)c(=O)[nH]c1=O | > 100 | > 420 | > 50 | 178 | > 210 | > 10 | > 420 | > 20 | > 420 | > 100 | – | – | – | – |
| Cc1cn(/C=C2/CC2(CO)CO)c(=O)[nH]c1=O | > 100 | > 420 | > 50 | 4.6 | > 210 | > 10 | > 420 | 19 | > 420 | > 100 | – | – | – | – |
| Nc1ccn(/C=C2/CC2(CO)CO)c(=O)n1 | > 100 | > 448 | > 50 | > 45 | 70 | > 10 | > 448 | > 20 | 14.3 | 32 | – | 54 | > 448 | – |
| Nc1nc(Cl)c2ncn(C=C3CC3(CO)CO)c2n1 [listing 1 of 2 here] | > 100 | > 355 | 23.6 | > 178 | > 178 | > 20 | > 71 | 16.4 | > 355 | > 100 | – | – | – | – |
| Nc1ncnc2c1ncn2/C=C1\CC1(CO)CO | > 100 | > 404 | > 50 | 132 | > 202 | > 10 | 11.7 | > 20 | > 404 | > 100 | 44.9 | – | – | – |
| Nc1nc(F)c2ncn(C=C3CC3(CO)CO)c2n1 [listing 1 of 2 here] | > 100 | > 377 | 56.4 | > 189 | > 189 | > 20 | 41.8 | 20.8 | 22.2 | 38 | 50.1 | 18.9 | 176 | – |
| Nc1ncnc2c1ncn2/C=C1/CC1(CO)CO | 100 | > 404 | > 50 | 166 | > 202 | > 10 | > 404 | 16 | 11.7 | 3.6 | – | 9.7 | > 404 | – |
| Nc1nc(F)c2ncn(C=C3CC3(CO)CO)c2n1 [listing 2 of 2 here] | > 100 | > 337 | > 100 | > 189 | > 189 | 0.02 | 31.7 | 18.5 | 43.7 | 33 | 180 | 18.9 | 176 | – |
| Nc1nc(Cl)c2ncn(C=C3CC3(CO)CO)c2n1 [listing 2 of 2 here] | > 100 | > 301 | 11.6 | 142 | > 178 | > 20 | > 71 | 16.4 | > 355 | > 100 | – | – | – | – |
| COc1nc(N)nc2c1ncn2C=C1CC1(CO)CO [listing 3 of 3 here] | – | – | – | – | – | – | – | – | – | – | – | – | – | Not toxic |
| Nc1ccn(/C=C2\CC2(CO)CO)c(=O)n1 | > 100 | > 448 | > 50 | 152 | > 224 | > 10 | > 448 | > 20 | > 448 | > 100 | – | – | – | – |
| Nc1nc2c(ncn2/C=C2/CC2(CO)CO)c(=O)[nH]1 [FILOCICLOVIR] | > 100 | > 380 | > 50 | 45 | 74 | > 10 | > 380 | 7 | 0.49 | 0.46 | – | 0.27 | > 380 | – |
| Nc1nc(N)c2ncn(C=C3CC3(CO)CO)c2n1 [listing 3 of 3 here] | – | – | – | – | – | – | – | – | – | – | – | – | – | Not toxic |
